Data taken from patent publication US20260138978A1, “POSITIVE ALLOSTERIC MODULATORS OF THE MUSCARINIC ACETYLCHOLINE RECEPTOR M1” (Vanderbilt University, priority 2022, published 2026).

Key:
[1] = target: T1, human mAChRM1 (Homo sapiens, UniProt P11229); assay: mAChR M1 cell-based functional assay (calcium mobilization), positive allosteric modulator activity: increase in the EC20 acetylcholine response; details: for Emax: PAM mode; for EC50: increase in the EC20 acetylcholine response, read-out: PAM Activity Human M1 EC50
T1 construct: host or cells: CHO-K1
T1 sequence (P11229 1-460): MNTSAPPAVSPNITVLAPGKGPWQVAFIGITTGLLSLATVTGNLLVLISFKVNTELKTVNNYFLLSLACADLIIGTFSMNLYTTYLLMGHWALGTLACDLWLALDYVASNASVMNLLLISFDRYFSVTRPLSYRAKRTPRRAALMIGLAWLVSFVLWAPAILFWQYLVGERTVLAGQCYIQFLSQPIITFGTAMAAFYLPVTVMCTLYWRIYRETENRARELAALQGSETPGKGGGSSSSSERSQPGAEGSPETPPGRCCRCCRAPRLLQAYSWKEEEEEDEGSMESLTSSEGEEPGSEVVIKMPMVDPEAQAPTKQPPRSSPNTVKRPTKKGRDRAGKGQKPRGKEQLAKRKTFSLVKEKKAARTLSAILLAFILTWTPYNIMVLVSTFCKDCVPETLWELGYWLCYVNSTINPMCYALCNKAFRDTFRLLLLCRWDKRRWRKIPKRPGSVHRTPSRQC
Procedure, shortened: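 Potentiation is scored as the rise in an EC20 acetylcholine-evoked calcium signal across 11-point (1:3) compound series, fitted with a four-parameter logistic equation to give EC50 and Emax. Read-out is Fluo-4 fluorescence ratio in hM1-transfected CHO-K1 cells, measured kinetically on FDSS.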

[2] = target: T1, human mAChRM1; assay: mAChR M1 cell-based functional assay (calcium mobilization), agonist activity upon compound addition, Emax relative to acetylcholine maximum
Procedure, shortened: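 Emax is given as a percentage of the maximal acetylcholine response, from four-parameter curves of compound-evoked calcium mobilization. Human M1-transfected CHO-K1 cells carried Fluo-4 dye, and compound (11 concentrations, 1:3 steps) was applied at 4 s of a 300 s kinetic fluorescence recording.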

[3] = calcium mobilization upon compound addition

Compound | Emax [1] [%] | EC50 [1] [nM] | Agonist Activity Human M1 EC50 [2, 3] | EC50 [2, 3] [nM] | Emax ([2]; relative to the maximum for acetylcholine) [%]
Cn1cc2cc(-c3cc(F)c(CN4Cc5cccc(F)c5C4=O)cc3F)cc(C(C)(C)O)c2n1 [Compound 169, 2-(2,5-difluoro-4-(7-(2-hydroxypropan-2-yl)-2-methyl-2H-indazol-5-yl)benzyl)-7-fluoroisoindolin-1-one] | 76 | 591 | inactive | – | –
Cn1cc2cc(-c3ccc(CN4Cc5cccc(F)c5C4=O)c(F)c3F)cc(C(C)(C)O)c2n1 [Compound 170, 2-(2,3-difluoro-4-(7-(2-hydroxypropan-2-yl)-2-methyl-2H-indazol-5-yl)benzyl)-7-fluoroisoindolin-1-one] | 71 | 1960 | inactive | – | –
Cn1cc2cc(-c3cc(F)c(CN4Cc5cccc(F)c5C4=O)c(Cl)c3)cc(C(C)(C)O)c2n1 [Compound 171, 2-(2-chloro-6-fluoro-4-(7-(2-hydroxypropan-2-yl)-2-methyl-2H-indazol-5-yl)benzyl)-7-fluoroisoindolin-1-one] | 75 | ≥ 10000 | inactive | – | –
Cn1cc2c(-c3cc(F)c(CN4Cc5ccccc5C4=O)c(F)c3)ccc(C(C)(C)O)c2n1 [Compound 172, 2-(2,6-difluoro-4-(7-(2-hydroxypropan-2-yl)-2-methyl-2H-indazol-4-yl)benzyl)isoindolin-1-one] | 85 | 155 | inactive | – | –
Cn1cc2c(-c3cc(F)c(CN4Cc5ncc(Br)cc5C4=O)c(F)c3)ccc(C(C)(C)O)c2n1 [Compound 173, 3-bromo-6-(2,6-difluoro-4-(7-(2-hydroxypropan-2-yl)-2-methyl-2H-indazol-4-yl)benzyl)-6,7-dihydro-5H-pyrrolo[3,4-b]pyridin-5-one] | 75 | 414 | inactive | – | –
Cc1cnc2c(c1)C(=O)N(Cc1c(F)cc(-c3ccc(C(C)(C)O)c4nn(C)cc34)cc1F)C2 [Compound 174, 6-(2,6-difluoro-4-(7-(2-hydroxypropan-2-yl)-2-methyl-2H-indazol-4-yl)benzyl)-3-methyl-6,7-dihydro-5H-pyrrolo[3,4-b]pyridin-5-one] | 80 | 531 | – | ≥ 10000 | 17
Cn1cc2c(-c3cc(F)c(CN4Cc5ncc(C6CC6)cc5C4=O)c(F)c3)ccc(C(C)(C)O)c2n1 [Compound 175, 3-cyclopropyl-6-(2,6-difluoro-4-(7-(2-hydroxypropan-2-yl)-2-methyl-2H-indazol-4-yl)benzyl)-6,7-dihydro-5H-pyrrolo[3,4-b]pyridin-5-one] | 74 | 2590 | inactive | – | –
CCc1cnc2c(c1)C(=O)N(Cc1c(F)cc(-c3ccc(C(C)(C)O)c4nn(C)cc34)cc1F)C2 [Compound 176, 6-(2,6-difluoro-4-(7-(2-hydroxypropan-2-yl)-2-methyl-2H-indazol-4-yl)benzyl)-3-ethyl-6,7-dihydro-5H-pyrrolo[3,4-b]pyridin-5-one] | 78 | 1090 | inactive | – | –
CC(C)c1cnc2c(c1)C(=O)N(Cc1c(F)cc(-c3ccc(C(C)(C)O)c4nn(C)cc34)cc1F)C2 [Compound 177, 6-(2,6-difluoro-4-(7-(2-hydroxypropan-2-yl)-2-methyl-2H-indazol-4-yl)benzyl)-3-isopropyl-6,7-dihydro-5H-pyrrolo[3,4-b]pyridin-5-one] | 75 | 5100 | inactive | – | –
